Consider ten compounds from ChEMBL document CHEMBL1130641, “5,5-trans lactone-containing inhibitors of serine proteases: identification of a novel, acylating thrombin inhibitor” (Bioorg Med Chem Lett, 1998).

One assay deals with Prothrombin (Homo sapiens, UniProt P00734). Put plainly: Inhibition of thrombin.
The target in another assay is Serine protease 1 (Homo sapiens, UniProt P07477). Put plainly: Inhibition of trypsin.
The target in another assay is T1, Neutrophil elastase (Homo sapiens, UniProt P08246).
T1 sequence (P08246 whole entry): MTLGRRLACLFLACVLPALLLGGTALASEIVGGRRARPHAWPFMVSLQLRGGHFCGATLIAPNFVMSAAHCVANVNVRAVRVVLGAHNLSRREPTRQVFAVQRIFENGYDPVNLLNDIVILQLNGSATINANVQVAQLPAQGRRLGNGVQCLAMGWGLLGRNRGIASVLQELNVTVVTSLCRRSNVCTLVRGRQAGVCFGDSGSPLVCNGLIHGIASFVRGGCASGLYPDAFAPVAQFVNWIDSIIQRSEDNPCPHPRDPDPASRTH
Put plainly: Compound was evaluated for the inhibition of human leukocyte elastase(HLE).

In a further assay the target is Coagulation factor X (Homo sapiens, UniProt P00742). As to the kind of experiment: Compound was evaluated for the inhibition of Coagulation factor X.
Chain of Coagulation factor X (P00742 41-179 limits assumed): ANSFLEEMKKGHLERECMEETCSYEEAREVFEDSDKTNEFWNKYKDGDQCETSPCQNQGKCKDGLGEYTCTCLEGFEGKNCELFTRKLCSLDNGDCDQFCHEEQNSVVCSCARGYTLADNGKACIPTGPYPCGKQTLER
Chain of Coagulation factor X (P00742 235-488 limits assumed): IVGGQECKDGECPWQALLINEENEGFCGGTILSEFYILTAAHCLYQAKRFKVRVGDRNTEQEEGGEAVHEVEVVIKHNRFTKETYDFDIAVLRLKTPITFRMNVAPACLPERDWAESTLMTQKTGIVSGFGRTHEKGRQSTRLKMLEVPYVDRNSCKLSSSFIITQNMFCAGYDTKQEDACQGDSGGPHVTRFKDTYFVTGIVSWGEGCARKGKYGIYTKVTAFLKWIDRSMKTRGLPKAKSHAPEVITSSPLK

Chain of Serine protease 1 (P07477 whole entry): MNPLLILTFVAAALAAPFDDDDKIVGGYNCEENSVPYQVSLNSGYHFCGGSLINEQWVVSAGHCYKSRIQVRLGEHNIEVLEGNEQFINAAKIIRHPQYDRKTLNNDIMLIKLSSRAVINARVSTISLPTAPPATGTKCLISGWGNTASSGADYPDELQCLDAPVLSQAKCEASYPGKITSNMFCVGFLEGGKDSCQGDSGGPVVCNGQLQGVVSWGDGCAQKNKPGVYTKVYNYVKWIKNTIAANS

By IC50 is commonly meant the concentration that gives 50% inhibition. Higher therefore signals weaker potency in that assay. For the compound `O=C1O[C@H]2CCC[C@@H]2[C@@H]1Cc1ccccc1`, the IC50 on Prothrombin was found to be 73 µM.

On to `CC(C)=CC(=O)C[C@@H]1C(=O)O[C@H]2CCC[C@@H]21`, for which, at Prothrombin, it took 0.021 µM to reach half-maximal inhibition (IC50).

`O=C1O[C@H]2CCC[C@@H]2[C@H]1Cc1ccccc1` yielded an IC50 against Prothrombin of 92 µM.

Consider `CC(C)=CC(=O)C[C@H]1C(=O)O[C@H]2C[C@]3(C)C4=CC[C@@H]5[C@](C)(CC[C@H]6OC(=O)[C@@]56C)[C@H]4CC[C@@]3(C)[C@@H]21`, for which the IC50 at Serine protease 1 was 0.07 µM; against Neutrophil elastase, greater than 10 µM; on Coagulation factor X it was greater than 20 µM; on Prothrombin, 0.046 µM.

Consider `C=CC[C@@H]1C(=O)O[C@H]2CCC[C@@H]21`, for which half-maximal inhibition against Prothrombin (IC50) was put at 98 µM.

Regarding `N=C(N)CCCC[C@H]1C(=O)O[C@H]2CCC[C@@H]21`, the IC50 against Serine protease 1 worked out at 0.04 µM; against Coagulation factor X it was 10.3 µM; against Prothrombin it was 0.13 µM.

On to `N=C(N)c1ccc(C[C@H]2C(=O)O[C@H]3CCC[C@@H]32)cc1`, for which the IC50 is 0.22 µM against Serine protease 1 and 16.8 µM against Prothrombin.

On Prothrombin, `C=CC[C@H]1C(=O)O[C@H]2CCC[C@@H]21` yielded an IC50 greater than 50 µM.

Turning to `N=C(N)c1cccc(C[C@H]2C(=O)O[C@H]3CCC[C@@H]32)c1`, the concentration for half-maximal inhibition (IC50) at Serine protease 1 was 3.3 µM; against Prothrombin, greater than 100 µM.

Regarding `CC(C)=CC(=O)C[C@@H]1C(=O)O[C@H]2CCCC21` (some centres not stated), on Prothrombin, the IC50 turned out to be 0.019 µM.
